Molecular target: T1, Pmar-Lig (Prochlorococcus marinus, UniProt A0A0A2ACP7)
T1 construct: gene EU96_0746; codon-optimised synthetic gene in pDEST17; tag removed; three domains (DB, AD, OB); 432 residues modelled in wild-type crystals
Assay: X-ray crystal structure, […] A
Format: binding
Conditions: post-step 3 complex with sealed DNA product; partial occupancy (adenine nucleobase 0.75, phosphate 0.5); some residual covalent DNA-adenylate; pH 6.5 crystallisation

T1 sequence (A0A0A2ACP7 entry or part of it): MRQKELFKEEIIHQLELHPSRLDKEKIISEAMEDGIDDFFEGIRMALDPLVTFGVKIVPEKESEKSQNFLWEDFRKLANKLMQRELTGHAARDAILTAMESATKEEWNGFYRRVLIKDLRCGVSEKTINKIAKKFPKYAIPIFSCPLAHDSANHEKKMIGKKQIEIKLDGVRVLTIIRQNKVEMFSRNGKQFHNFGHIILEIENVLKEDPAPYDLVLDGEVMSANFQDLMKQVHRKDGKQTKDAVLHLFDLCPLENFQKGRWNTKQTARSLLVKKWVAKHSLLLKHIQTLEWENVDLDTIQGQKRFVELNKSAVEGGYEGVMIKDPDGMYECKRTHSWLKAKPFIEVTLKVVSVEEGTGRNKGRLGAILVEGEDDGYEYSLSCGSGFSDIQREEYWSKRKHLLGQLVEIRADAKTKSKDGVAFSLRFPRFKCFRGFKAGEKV

With Nc1ncnc2c1ncn2[C@@H]1O[C@H](COP(=O)(O)O)[C@@H](O)[C@H]1O [AMP] the “X-ray crystal structure, 1.99 A” value was “with the DNA product retained in the active site, as well as residual AMP”.

Source: publication PMC6698739, “Structural intermediates of a DNA–ligase complex illuminate the role of the catalytic metal ion and mechanism of phosphodiester bond formation” (Nucleic Acids Research, 2019)
